# Values quoted from earlier work in patent US20250064735A1, “CONTAINER SYSTEM AND PHARMACEUTICAL FOAM COMPOSITION COMPRISING BETAMETHASONE” (Glenmark Pharmaceuticals Limited, priority 2018, published 2025).
row,SMILES,pH at which the substance is stable
1,"CC1C[C@H]2[C@@H]3CCC4=CC(=O)C=C[C@]4(C)[C@@]3(F)C(O)C[C@]2(C)[C@@]1(O)C(=O)CO (some centres unmarked) [Betamethasone, 9-fluoro-11,17,21-trihydroxy-16-methylpregna-1,4-diene-3,20-dione]",4-6
2,C=C1/C(=C\C=C2/CCC[C@]3(C)[C@@H]([C@H](C)/C=C/[C@@H](O)C4CC4)CC[C@@H]23)C[C@@H](O)C[C@@H]1O [Calcipotriene],greater than 8
